# Test results as given in the Deep4Chem optical property database.
# Several values for one entry are separate records, joined by “and”; a condition that tells them apart may be missing. Equal values may be shown once.
# Experiment: solvent given as SMILES
smiles,measurement,setting,value
Nc1nc(/C=C/c2ccc(N(c3ccccc3)c3ccccc3)cc2)cc(/C=C/c2ccc(N(c3ccccc3)c3ccccc3)cc2)n1,emission maximum,in Cc1ccccc1,467 nm
same,emission maximum,in ClC(Cl)Cl,526 nm
N#CSC1=CC2=C(c3ccccc3)c3ccc(SC#N)n3[B-](F)(F)[N+]2=C1N1CCOCC1,emission maximum,in CC#N,585 nm
same,emission maximum,in CCCCCC,588 nm
same,emission maximum,in CCOC(C)=O,589 nm
same,emission maximum,in CO,583 nm
same,emission maximum,in ClCCl,594 nm
S=P1(c2ccccc2)c2cccc3c4c5ccccc5c5ccccc5c4c4ccc1n4c23 (centres undefined),emission maximum,in ClCCl,493 nm
N#Cc1nn(-c2ccccc2Cl)nc1N1CCCC1,emission maximum,in CC#N,426 nm
F[B-]1(F)OC(C#Cc2ccccc2)=CC(c2ccccc2)=[O+]1,emission maximum,in ClCCl,420 nm
O=C1C=CC2=Cc3ccccc3B(O)N12,emission maximum,in CC#N,412 nm
same,emission maximum,in CO,416 nm
same,emission maximum,in CS(C)=O,430 nm
same,emission maximum,in ClC(Cl)Cl,420 nm
Cc1ccc(C(=O)NN2C3=C(CC4=C2CCCC4=O)C(=O)CCC3)cc1,emission maximum,in C1CCOC1,435 nm
same,emission maximum,in CC#N,343 nm
same,emission maximum,in CC(C)=O,368 nm
same,emission maximum,in CCCCCO,445 nm
same,emission maximum,in CO,447 nm
same,emission maximum,in ClC(Cl)Cl,438 nm
same,emission maximum,in ClCCl,435 nm
Cc1ccc(C2=Cc3ccc4ccccc4[n+]3[B-](F)(F)O2)cc1,emission maximum,in ClC(Cl)Cl,443 nm
Cc1ccc(-c2c3ccc([nH]3)c3nc(c(-c4ccc([N+](=O)[O-])cc4)c4ccc([nH]4)c4ccc([nH]4)c(-c4ccc(C)cc4)c4ccc2o4)C=C3)cc1,emission maximum,in C1CCOC1,758 nm
same,emission maximum,in Cc1ccccc1,737 nm
same,emission maximum,in c1ccccc1,737 nm
CC1(C)C(/C=C/C2=C(c3ccc(C(=O)O)cc3)C(=C/C=C3/N(CCCS(=O)(=O)[O-])c4ccc5ccccc5c4C3(C)C)/CCC2)=[N+](CCCS(=O)(=O)[O-])c2ccc3ccccc3c21,emission maximum,in CO,811 nm
N#C/C(=C\c1ccc(C(F)(F)F)cc1)c1nc(-c2ccc(Cl)cc2)cs1,emission maximum,in CC#N,490 nm
c1ccc(-c2nn(-c3ccccc3)c3nc4ccc(N(c5ccccc5)c5ccccc5)cc4cc23)cc1,emission maximum,in C1CCCCC1,486.62 nm
same,emission maximum,in C1CCOC1,524.66 nm
same,emission maximum,in CC#N,570.78 nm
same,emission maximum,in CC(C)=O,551.27 nm
same,emission maximum,in CCCCCl,516 nm
same,emission maximum,in CCCCOCCCC,498.75 nm
same,emission maximum,in CN(C)C=O,567.21 nm
COC(=O)CN1C(=O)c2cc3ccc(N(C)C)cc3cc2C1=O,emission maximum,in C1CCOC1,510 nm
same,emission maximum,in CC#N,549 nm
same,emission maximum,in CC(C)=O,532 nm
same,emission maximum,in CCO,584 nm
same,emission maximum,in Cc1ccccc1,491 nm
same,emission maximum,in ClC(Cl)Cl,509 nm
Cn1ccc(=O)n(C)c1=O,emission maximum,in CC#N,308 nm
CC1=C(/C=C/c2ccccc2)C2=Cc3c(/C=C/c4ccccc4)c(C)c(C)n3[B-](F)(F)[N+]2=C1C,emission maximum,in CC#N,589 nm
CNC1=C2C=CC=[N+]2[B-](F)(F)n2cccc21,emission maximum,in C1CCCCC1,463 nm
same,emission maximum,in CC(C)=O,441.5 nm
same,emission maximum,in CCO,439 nm
same,emission maximum,in CCOC(C)=O,444.5 nm
same,emission maximum,in CO,440 nm
same,emission maximum,in OCC(F)(F)F,449 nm
CCCCCCCCCCCCN1C(=O)c2c(c3ccc4cc(-c5ccc(OC)cc5)c(OC)cc4c3c3c2ccc2cc(-c4ccc(OC)cc4)c(OC)cc23)C1=O,emission maximum,in ClCCl,532 nm
Brc1ccc(-c2pc3ccccc3s2)cc1 (centres undefined),emission maximum,in CC#N,439 nm
C#CCNC1=C2C=CC=[N+]2[B-](F)(F)n2cccc21,emission maximum,in C1CCCCC1,482 nm and 486 nm
same,emission maximum,in CC(C)=O,466.5 nm
same,emission maximum,in CCCCO,463 nm
same,emission maximum,in CCCO,467 nm
same,emission maximum,in CCO,463 nm and 468 nm
same,emission maximum,in CCOC(C)=O,469.5 nm
same,emission maximum,in CN(C)C=O,458 nm
same,emission maximum,in CO,464.5 nm
same,emission maximum,in CS(C)=O,463 nm
same,emission maximum,in Cc1ccccc1,485 nm
same,emission maximum,in ClC(Cl)Cl,485 nm
same,emission maximum,in OCC(F)(F)F,480.5 nm
same,emission maximum,in c1ccccc1,485 nm
O=C(c1ccc2c3c(cccc13)-c1cccc3c1C2CC=C3)c1c(Cc2ccccc2)c2ccc3cccc4c5cccc6ccc1c(c65)c2c34 (centres undefined),emission maximum,in ClCCl,528 nm
Cc1cc(C)cc(NC(=O)c2sc(Br)nc2C)c1,emission maximum,in C1CCOC1,413.2 nm
same,emission maximum,in CC#N,399 nm
same,emission maximum,in CCCCCC,400.6 nm
same,emission maximum,in CCOC(C)=O,405.5 nm
same,emission maximum,in CN(C)C=O,398.2 nm
same,emission maximum,in CO,402 nm
same,emission maximum,in CS(C)=O,402.5 nm
same,emission maximum,in ClC(Cl)Cl,411.5 nm
CN1C(=CC2=C([O-])C(=CC3=[N+](C)c4ccccc4C3(C)C)C2=C(C#N)C#N)C(C)(C)c2ccccc21,emission maximum,in ClC(Cl)Cl,700 nm
c1ccc(-c2nnc(-c3cc(-n4c5ccccc5c5ccccc54)c(-n4c5ccccc5c5ccccc54)cc3-c3nnc(-c4ccccc4)o3)o2)cc1,emission maximum,in CC#N,525.15 nm
same,emission maximum,in Cc1ccccc1,466 nm
same,emission maximum,in ClCCl,500.52 nm
CC(C)(C)c1ccc(-c2cc(-c3ccc(-c4cc(-c5ccc(C(C)(C)C)cc5)c(C(=O)NC5CCCCC5)s4)s3)sc2C(=O)NC2CCCCC2)cc1,emission maximum,in ClCCl,448 nm
CN(C)c1c2ccccc2cc2ccccc12,emission maximum,in C1CCCCC1,391 nm
same,emission maximum,in C1CCOC1,392 nm
same,emission maximum,in C1COCCO1,392 nm
same,emission maximum,in CC#N,390 nm
same,emission maximum,in CCO,389 nm
same,emission maximum,in CN(C)C=O,392 nm
same,emission maximum,in CO,389 nm
same,emission maximum,in COCCOC,392 nm
same,emission maximum,in CS(C)=O,395 nm
same,emission maximum,in O,390 nm
same,emission maximum,in OCC(O)CO,393 nm
same,emission maximum,in OCCO,392 nm
CC(C)(C)c1ccc2oc3nc4oc5ccc(-n6c7ccccc7c7cc(-n8c9ccccc9c9ccccc98)ccc76)cc5c4cc3c2c1,emission maximum,in ClC(Cl)Cl,446 nm
O=c1oc2cccc3c4cccc5ccc6c7cc(F)ccc7c1c(c23)c6c54,emission maximum,in C1CCOC1,424 nm
CC(C)(C)c1ccc2oc3nc4oc5ccc(-n6c7ccccc7c7ccccc76)cc5c4cc3c2c1,emission maximum,in ClC(Cl)Cl,446 nm
N#CC=C(c1ccc(N2c3ccccc3Oc3ccccc32)cc1)c1ccc(N2c3ccccc3Oc3ccccc32)cc1,emission maximum,in Cc1ccccc1,574 nm
Nc1ccc2c(-c3ccc(C(=O)CN4C(=O)CCC4=O)cc3C(=O)[O-])c3ccc(=[NH2+])c(S(=O)(=O)[O-])c-3oc2c1S(=O)(=O)[O-],emission maximum,in O,519 nm
CCOC(=O)c1c(-c2cc3ccc(OCC=C(C)C)cc3oc2=O)nn(-c2cccc(Cl)c2)c1C(=O)OCC,emission maximum,in ClCCl,426 nm
COc1ccc(C2=[N+]3C(=Nc4c(-c5cc(OC)c(OC)c(OC)c5)cc(-c5ccc(OC)cc5)n4[B-]3(F)F)C(c3cc(OC)c(OC)c(OC)c3)=C2)cc1,emission maximum,in Cc1ccccc1,724 nm
O=P1(c2ccccc2)C(c2ccccc2)=Cc2cc3ccccc3cc21 (centres undefined),emission maximum,in ClCCl,428 nm
O=S1c2ccccc2-c2cc(-c3c4ccccc4cc4ccccc34)ccc21 (centres undefined),emission maximum,in C1CCCCC1,401.88 nm
same,emission maximum,in CC#N,504.43 nm
same,emission maximum,in ClCCl,444.61 nm
Cc1cc(C)c(B(c2c(C)cc(C)cc2C)c2cc3ccc4ccccc4c3c3c2cc(N(C)C)c2ccccc23)c(C)c1,emission maximum,in C1CCCCC1,554 nm
same,emission maximum,in C1CCOC1,601 nm
same,emission maximum,in CC#N,613 nm
same,emission maximum,in ClC(Cl)Cl,585 nm
same,emission maximum,in c1ccccc1,582 nm
COc1ccc(-c2cccc3ncc(-c4ccccc4)n23)cc1,emission maximum,in ClCCl,468 nm
CN(C)c1ccc(C#Cc2cc(C#Cc3ccc(C(F)(F)F)cc3)c3ccc4c(C#Cc5ccc(C(F)(F)F)cc5)cc(C#Cc5ccc(N(C)C)cc5)c5ccc2c3c54)cc1,emission maximum,in ClCCl,608 nm
COC(=O)c1cc(=O)n(C)c2cc(-c3ccc(N(C)C)cc3)sc12,emission maximum,in CC#N,599 nm
same,emission maximum,in ClCCl,554 nm
NCc1ccc2ccc3cccc4ccc1c2c34,emission maximum,in C1CCCCC1,375 nm
same,emission maximum,in CC#N,375 nm
same,emission maximum,in CO,375 nm
same,emission maximum,in ClC(Cl)Cl,376 nm
CC(C)[Si](C#Cc1c2ccc(C(C)(C)C)cc2c(C#Cc2c3ccc(C(C)(C)C)cc3c(C#Cc3c4ccc(C(C)(C)C)cc4c(C#C[Si](C(C)C)(C(C)C)C(C)C)c4ccc(C(C)(C)C)cc34)c3ccc(C(C)(C)C)cc23)c2ccc(C(C)(C)C)cc12)(C(C)C)C(C)C,emission maximum,in Cc1ccccc1,589 nm
C(=C\c1nc2ccccc2[nH]1)/c1ccc(/C=C/c2nc3ccccc3[nH]2)cc1,emission maximum,in C1CCOC1,428 nm
same,emission maximum,in CC#N,427 nm
same,emission maximum,in CC(C)=O,427 nm
same,emission maximum,in CN(C)C=O,433 nm
same,emission maximum,in CO,422 nm
same,emission maximum,in CS(C)=O,439 nm
CCOc1cccc(-c2nc3c(c4c2-c2ccccc2CC4)-c2ccccc2CC3)c1O,emission maximum,in ClCCl,406 nm
COC(=O)c1c2ccccc2nc2ccccc12,emission maximum,in C1CCOC1,418 nm
same,emission maximum,in C1COCCO1,420 nm
same,emission maximum,in CC#N,422 nm
same,emission maximum,in CCCCCO,432 nm
same,emission maximum,in CCCCO,431 nm
same,emission maximum,in CCCO,430 nm
same,emission maximum,in CCO,432 nm
same,emission maximum,in CO,432 nm
same,emission maximum,in COCCOC,420 nm
same,emission maximum,in ClC(Cl)Cl,428 nm
same,emission maximum,in ClCCl,422 nm
same,emission maximum,in OCCO,418 nm
CCOC(=O)c1cc(C(=O)OCC)c2cc(NC(=O)C(F)(F)F)ccc2n1,emission maximum,in CCO,436 nm
CCC(C)Nc1c2ccc(=[N+]3CCCCC3)cc-2oc2cc(N3CCCCC3)ccc12 (centres undefined),emission maximum,in ClCCl,537 nm
CCN(CC)c1ccc(C2=C3C(C)=CC(C)=[N+]3[B-](F)(F)n3c(C)cc(C)c32)cc1,emission maximum,in CO,513 nm
c1ccc(-c2cc(-c3ccc(N4c5ccccc5C(c5ccccc5)(c5ccccc5)c5ccccc54)cn3)nc(-c3ccccc3)n2)cc1,emission maximum,in Cc1ccccc1,480 nm
same,emission maximum,in O=P(c1ccccc1)(c1ccccc1)c1ccccc1Oc1ccccc1P(=O)(c1ccccc1)c1ccccc1,486 nm
c1cc2ccc3ccc(-c4ccc(-c5nnc(-c6ccc(-c7nnc(-c8ccc(-c9ccc%10ccc%11cccc%12ccc9c%10c%11%12)s8)o7)cc6)o5)s4)c4ccc(c1)c2c34,emission maximum,in C1COCCO1,373 nm
same,emission maximum,in CC#N,398 nm
same,emission maximum,in CC(=O)N(C)C,373 nm
same,emission maximum,in CCCCCCCCCCO,418 nm
same,emission maximum,in CCCCCCCCO,393 nm
same,emission maximum,in CCCCCCO,394 nm
same,emission maximum,in CCCCO,393 nm
same,emission maximum,in CCO,393 nm
same,emission maximum,in CS(C)=O,374 nm
same,emission maximum,in Cc1ccccc1,419 nm
same,emission maximum,in ClC(Cl)Cl,373 nm
